Test results taken from patent US7498023B2, “Blockade of T cell migration into epithelial GVHD target tissues as an approach to achieving anti-tumor effects against lymphohematopoietic malignancies without GVHD” (The General Hospital Corporation, priority 2000, dated 2009).

Key:
[1] = Cy 50 mg/kg daily x4 with ATG, thymic irradiation, BMT; five subjects
Excerpt: Intravenous cyclosporine (CYA) was given beginning on day −1 with conversion to p.o. CYA when tolerated. Donor leukocytes (DLI) were given on days +35, (10^7/kg CD3+ cells) and +56 (5×10^7/kg CD3+ cells) if no GVHD was present. Median subject age was 30 (range 20-45) years. All subjects had disease progression during salvage chemotherapy or radiation therapy. […] Chimerism analyses of weekly peripheral blood samples and pre-BMT, day +28, and day +100 bone marrow aspirate samples have been performed by variable number of tandem repeat sequence (VNTR) analysis (HLA matched BMT) or flow cytometry (HLA mismatched BMT).

[2] = cited from earlier work

O=P1(N(CCCl)CCCl)NCCCO1 (centres unmarked) [cyclophosphamide]
toxicities observed [1]: reversible Cy cardiotoxicity (n=1) | subjects developing a diffuse maculopapular rash ([2]; 24-72 hours following cyclophosphamide): 10-20% | subjects with some hematuria ([2]; at this dose level (50 mg/kg x4)): Approximately 50% | incidence of hemorrhagic cystitis ([2]; cyclophosphamide 50 mg/kg on days -6, -5, -4, -3): 20% | total dose at which fatal cardiac failure due to hemorrhagic necrosis occurs ([2]; total dose (7.6 grams/m^2)): ≥ 200 mg/kg
